From ChEMBL document CHEMBL1135274, “Spirocyclic nonpeptide glycoprotein IIb-IIIa antagonists. Part 3: synthesis and SAR of potent and specific 2,8-diazaspiro[4.5]decanes” (Bioorg Med Chem Lett, 2002)

How the values were obtained:
[1] = species on record: Homo sapiens; test: In vitro ability to inhibit aggregation of ADP stimulated human platelets using PRP assay.; type: functional
[2] = biological target: Integrin alpha-IIb/beta-3 (Homo sapiens, UniProt P05106+P08514); test: In vitro activity to block the binding of fibrinogen to purified human fibrinogen receptor.; type: protein-complex assay
Integrin alpha-IIb/beta-3, sequence (P05106 27-788 limits assumed): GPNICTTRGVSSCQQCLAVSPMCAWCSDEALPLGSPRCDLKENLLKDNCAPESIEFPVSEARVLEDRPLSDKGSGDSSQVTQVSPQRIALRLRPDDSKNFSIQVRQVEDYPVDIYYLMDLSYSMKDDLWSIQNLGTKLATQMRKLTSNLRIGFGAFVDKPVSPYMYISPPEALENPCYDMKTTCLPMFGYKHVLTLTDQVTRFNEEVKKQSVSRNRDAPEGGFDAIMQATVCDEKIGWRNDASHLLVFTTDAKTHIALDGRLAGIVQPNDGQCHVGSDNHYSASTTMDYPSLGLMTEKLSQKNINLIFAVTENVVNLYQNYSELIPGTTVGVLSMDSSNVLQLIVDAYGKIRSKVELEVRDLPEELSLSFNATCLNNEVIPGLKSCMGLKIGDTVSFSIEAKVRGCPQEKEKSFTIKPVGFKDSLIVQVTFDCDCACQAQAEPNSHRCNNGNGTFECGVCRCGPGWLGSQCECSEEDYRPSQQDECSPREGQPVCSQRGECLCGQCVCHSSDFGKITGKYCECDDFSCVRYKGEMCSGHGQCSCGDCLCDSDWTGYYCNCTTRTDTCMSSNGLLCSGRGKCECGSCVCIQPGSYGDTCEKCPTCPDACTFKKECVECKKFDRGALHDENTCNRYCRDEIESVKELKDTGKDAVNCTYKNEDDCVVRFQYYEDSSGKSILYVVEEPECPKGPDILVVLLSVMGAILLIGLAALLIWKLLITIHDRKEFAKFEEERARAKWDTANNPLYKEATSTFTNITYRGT
Integrin alpha-IIb/beta-3, sequence (P08514 32-887 limits assumed): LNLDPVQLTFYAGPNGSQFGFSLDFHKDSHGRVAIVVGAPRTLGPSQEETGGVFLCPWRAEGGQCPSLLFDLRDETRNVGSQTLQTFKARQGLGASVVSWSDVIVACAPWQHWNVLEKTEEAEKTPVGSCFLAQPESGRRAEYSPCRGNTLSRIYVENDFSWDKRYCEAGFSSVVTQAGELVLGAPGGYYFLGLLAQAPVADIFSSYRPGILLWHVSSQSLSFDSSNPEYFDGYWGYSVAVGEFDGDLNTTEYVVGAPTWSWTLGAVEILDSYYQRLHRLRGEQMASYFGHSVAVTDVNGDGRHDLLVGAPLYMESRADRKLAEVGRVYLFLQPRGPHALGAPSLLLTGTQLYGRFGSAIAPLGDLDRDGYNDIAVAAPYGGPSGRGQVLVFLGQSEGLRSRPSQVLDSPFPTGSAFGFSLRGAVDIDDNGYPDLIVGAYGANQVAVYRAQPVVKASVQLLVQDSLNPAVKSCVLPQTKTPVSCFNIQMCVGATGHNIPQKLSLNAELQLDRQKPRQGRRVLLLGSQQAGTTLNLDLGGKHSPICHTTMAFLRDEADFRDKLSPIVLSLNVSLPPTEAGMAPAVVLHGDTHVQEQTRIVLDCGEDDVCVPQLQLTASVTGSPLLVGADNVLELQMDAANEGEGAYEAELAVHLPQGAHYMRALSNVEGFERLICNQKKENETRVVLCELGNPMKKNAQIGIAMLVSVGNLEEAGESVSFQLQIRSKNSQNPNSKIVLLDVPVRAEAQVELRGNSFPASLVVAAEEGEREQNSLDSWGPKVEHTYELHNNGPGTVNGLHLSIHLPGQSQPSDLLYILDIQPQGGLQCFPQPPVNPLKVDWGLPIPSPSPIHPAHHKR
Integrin alpha-IIb/beta-3, sequence (P08514 891-1039 limits assumed): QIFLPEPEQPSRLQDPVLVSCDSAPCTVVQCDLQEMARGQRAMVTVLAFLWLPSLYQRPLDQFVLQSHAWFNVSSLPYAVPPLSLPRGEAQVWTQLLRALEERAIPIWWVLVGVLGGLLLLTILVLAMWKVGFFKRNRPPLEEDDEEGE

[3] = Plasma half life was reported after a intravenous dose of 1 mg/kg in Dawley rat; type: ADME, organism-based; design: dose 1 mg/kg, route intravenous; conditions: Sprague-Dawley
[4] = Oral bioavailability in rat (Sprague-Dawley) (dose 1 mg/kg p.o.); type: ADME, organism-based; conditions: in vivo

IC50 [1] [nM]	IC50 [2] [nM]	half-life [3] [min]	bioavailability [4] [%]	SMILES
10600	11900	–	–	O=C(O)CCCCNC(=O)N1CCC2(CC1)CCN(c1ccncc1)C2
680	136	–	–	O=C(O)CC(=O)N1CCN(C(=O)N2CCC3(CC2)CCN(c2ccncc2)C3)CC1
80000	> 50000	–	–	O=C(O)CCCNC(=O)N1CCC2(CC1)CCN(c1ccncc1)C2
4100	25	–	–	O=C(N[C@@H](CCC(=O)N1CCC2(CC1)CCN(c1ccncc1)C2)C(=O)O)OCc1ccccc1
3200	87	–	–	O=C(O)CCN1CCN(C(=O)N2CCC3(CC2)CCN(c2ccncc2)C3)CC1
700	–	–	–	O=C(O)CC(=O)N1CCCN(C(=O)N2CCC3(CC2)CCN(c2ccncc2)C3)CC1
1300	43	–	–	O=C(O)CCCCCC(=O)N1CCC2(CCN(c3ccncc3)CC2)C1
4000	–	–	–	CCCCOC(=O)N[C@@H](CCC(=O)N1CCC2(CC1)CCN(c1ccncc1)C2)C(=O)O
55000	4200	–	–	O=C(O)C1CCN(C(=O)N2CCC3(CC2)CCN(c2ccncc2)C3)CC1
950	–	–	–	O=C(O)Cn1ccc2cc(C(=O)N3CCC4(CC3)CCN(c3ccncc3)C4)ccc21
1180	25	–	–	O=C(O)CN1CCN(C(=O)N2CCC3(CCN(c4ccncc4)CC3)C2)CC1=O
24100	–	–	–	O=C(O)CCC(=O)N1CCN(C(=O)N2CCC3(CC2)CCN(c2ccncc2)C3)CC1
23300	1800	–	–	O=C(O)CCn1ccc2cc(C(=O)N3CCC4(CC3)CCN(c3ccncc3)C4)ccc21
8340	238	–	–	O=C(O)CCN1CCN(C(=O)N2CCC3(CCN(c4ccncc4)CC3)C2)CC1=O
11300	–	–	–	O=C(O)COc1ccc(C(=O)N2CCC3(CC2)CCN(c2ccncc2)C3)cc1
34600	–	–	–	O=C(O)CCNC(=O)N1CCC2(CC1)CCN(c1ccncc1)C2
270	2	22.8	12	O=C(O)[C@H](CCC(=O)N1CCC2(CC1)CCN(c1ccncc1)C2)NS(=O)(=O)c1cnoc1
5900	–	–	–	O=C(O)CC(=O)NC1CCN(C(=O)N2CCC3(CC2)CCN(c2ccncc2)C3)C1 (stereo unspecified)

IC50 [1] [nM]	IC50 [2] [nM]	half-life [3] [min]	bioavailability [4] [%]	SMILES
8900	–	–	–	O=C(O)CN1CCN(C(=O)N2CCC3(CC2)CCN(c2ccncc2)C3)CC1
12400	1200	–	–	CN(CC(=O)O)C1CCN(C(=O)N2CCC3(CC2)CCN(c2ccncc2)C3)CC1
1000	–	–	–	O=C(O)CCN1CCC(C(=O)N2CCC3(CC2)CCN(c2ccncc2)C3)CC1
80000	> 50000	–	–	O=C(O)CCCCC(=O)N1CCC2(CCN(c3ccncc3)CC2)C1
3700	254	–	–	O=C(O)CCN1CCCN(C(=O)N2CCC3(CC2)CCN(c2ccncc2)C3)CC1
18300	873	–	–	O=C(O)COc1cccc(C(=O)N2CCC3(CC2)CCN(c2ccncc2)C3)c1
1040	153	–	–	O=C(O)COC1CCN(C(=O)N2CCC3(CCN(c4ccncc4)CC3)C2)CC1
260	4	58.8	10	O=C(O)CC(=O)N1CCC(C(=O)N2CCC3(CC2)CCN(c2ccncc2)C3)CC1
9500	320	–	–	O=C(O)CN1CCC(C(=O)N2CCC3(CC2)CCN(c2ccncc2)C3)CC1
2800	–	–	–	O=C(O)COCC1CCN(C(=O)N2CCC3(CC2)CCN(c2ccncc2)C3)CC1
1200	115	–	–	O=C(O)CC1CCN(C(=O)N2CCC3(CC2)CCN(c2ccncc2)C3)CC1
18800	–	–	–	O=C(O)CCCCCCC(=O)N1CCC2(CCN(c3ccncc3)CC2)C1
3800	–	–	–	O=C(O)COC1CCN(C(=O)N2CCC3(CC2)CCN(c2ccncc2)C3)CC1
74000	> 50000	–	–	O=C(O)CCCCCNC(=O)N1CCC2(CC1)CCN(c1ccncc1)C2
3300	225	–	–	CC(CC(=O)O)N1CCC(C(=O)N2CCC3(CC2)CCN(c2ccncc2)C3)CC1 (stereo unspecified)
1580	–	–	–	O=C(O)CC(=O)N1CCC(C(=O)N2CCC3(CCN(c4ccncc4)CC3)C2)CC1
1100	90	–	–	O=C(O)CS(=O)(=O)N1CCC(C(=O)N2CCC3(CC2)CCN(c2ccncc2)C3)CC1
